Data taken from patent US20130109693A1, “DERIVATIVES OF PYRIDO [3,2-D] PYRIMIDINE, METHODS FOR PREPARATION THEREOF AND THERAPEUTIC USES THEREOF” (UNIVERSITE D'ORLEANS, priority 2010, published 2013).
pIC50: −log10 of the molar value.

Tests used:
GSK-3αβ = GSK-3αβ kinase inhibition (GS-1 substrate, buffer A); type: biochemical; conditions: 15 μM ATP, 30° C., native, pig brain; read-out: IC50 Kinases GSK3
Experimental: (§1) The activities for inhibiting protein kinases of the compounds of the invention are tested according to the following general procedure:
(§2) Buffer A: 10 mM MgCl2, 1 mM EGTA, 1 mM DTT, 25 mM Tris-HCl pH 7.5 and 50 μg heparin/mL.
(§3) The kinase activities are dosed in buffers A or C, at 30° C., at a final concentration of ATP of 15 μM. The values of the blanks were subtracted and the activities are expressed as a % of the maximum activity, i.e. in the absence of inhibitors. The controls were carried out with suitable dilutions of DMSO.
GSK-3αβ (from pig brain, native) was assayed by using a specific substrate of GSK-3 (GS-1: […]pEDEEE)(Sp represents a phosphorylated serine) (Primot, A., Baratte, B., Gompel, M., Borgne, A., Liabeuf, S., Romette, J. L., Costantini, F. and Meijer, L., 2000. Purification of GSK-3 by affinity chromatography on immobilized axin. Protein Expr. & Purif. 20 (3), 394-404). GS-1 was synthesized by Millegen (Labège, France). Its kinase activity was analyzed in the buffer A, with 1 mg of histone H1/mL, in the presence of 15 μM of [γ-^33P] ATP (3,000 Ci/mmol; 10 mCi/mL) in a final volume of 30 μl. After 30 mins of incubation at 30° C., 25 μl of supernatant aliquots were deposited on 2.5×3 cm pieces of phosphocellulose Whatman P81papier, and after 20 seconds, the filters were washed five times (for at least 5 minutes every time) in a solution of 10 mL of phosphoric acid/liter of water. The wet filters were counted in the presence of 1 mL of ACS scintillator fluid (Amersham).

NCI = experiment: Cytotoxicity on human cells, NCI (lung); type: cell-based; conditions: exposed 24 h and 48 h, 0.1 to 25 μM
Experimental: (§4) […] Dosages on Human cells (Huh7, Caco, MDA-MB 231, HCT 116, PC3, NCl, Fibroblast)
(§5) Cytotoxicity: This method is based on an automated imaging analysis. 4.10^3 cells were cultivated on 96-well plates and thus left for 24 hours so that they may bind, be distributed and proliferate.
(§6) These cells were then exposed for 24 h and 48 h to increasing concentrations of the compounds of the invention, from 0.1 to 25 μM in a final volume of 80 μL of culture medium. The cells are then set with a 4% paraformaldehyde solution and the nuclei are colored with Hoechst 3342 and counted according to automated imaging quantification.
(§7) All the cell lines were cultivated in a DMEM or RPMI (Invitrogen) medium. All these media were completed with antibiotics (penicillin-streptomycin)(Lonza) and 10% by volume of foetal calf serum (Invitrogen). The cells were cultivated at 37° C. with 5% of CO2. The treatments with the molecules to be tested were carried out with increasing concentrations. […] The control experiments were also conducted by using suitable dilutions of DMSO (maximum 1% DMSO). Cell viability was determined by measuring the reduction of MTS as described in the article of Ribas J, Boix J. (2004). Cell differentiation caspase inhibition and macromolecular synthesis blockage but not BCL-2 or BCL-XL proteins protect SH-SY5Y cells from apoptosis triggered by two CDK inhibitory drugs. Exp. Cell Res., 295: 9-24.

CDK5 = molecular target: T1, CDK5 (Homo sapiens, UniProt Q00535); experiment: CDK5 kinase inhibition (histone H1, [γ-33P] ATP, buffer C); type: biochemical; conditions: 15 μM ATP, 30° C., recombinant; read-out: IC50 Kinases CDK5
T1 construct: made in house
T1 sequence (Q00535 whole entry): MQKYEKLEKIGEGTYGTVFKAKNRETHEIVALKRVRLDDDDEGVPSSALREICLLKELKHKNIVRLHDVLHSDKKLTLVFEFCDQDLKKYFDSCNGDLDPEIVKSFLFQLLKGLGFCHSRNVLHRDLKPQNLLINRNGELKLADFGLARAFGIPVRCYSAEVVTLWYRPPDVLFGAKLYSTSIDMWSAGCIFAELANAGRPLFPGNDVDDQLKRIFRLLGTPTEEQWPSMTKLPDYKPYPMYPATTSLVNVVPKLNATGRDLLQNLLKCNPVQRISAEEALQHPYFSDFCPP
T1 sequence (Q15078 99-307 partner limits assumed): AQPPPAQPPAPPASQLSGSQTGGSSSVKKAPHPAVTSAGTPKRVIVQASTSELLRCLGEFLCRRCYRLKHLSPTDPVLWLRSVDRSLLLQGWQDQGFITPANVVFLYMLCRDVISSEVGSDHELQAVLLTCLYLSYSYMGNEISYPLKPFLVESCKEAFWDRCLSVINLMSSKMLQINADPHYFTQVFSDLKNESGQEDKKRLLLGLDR
Experimental: as §1
Buffer C: 60 mM β-glycerophosphate, 15 mM p-nitrophenyl-phosphate, 25 mM Mops (pH 7.2), 5 mM EGTA, 15 mM MgCl2, 1 mM DTT, 1 mM of sodium vanadate
as §3
CDK5 (humane, recombinant) was prepared as described earlier (Leclerc, S.; Garnier, M.; Hoessel, R.; Marko, D.; Bibb, J. A.; Snyder, G. L.; Greengard, P.; Biernat, J.; Mandelkow, E.-M.; Eisenbrand, G.; Meijer, L. Indirubins inhibit glycogen synthase kinase-3β and CDK5/p25, two kinases involved in abnormal tau phosphorylation in Alzheimer's disease—A property common to most CDK inhibitors? J. Biol. Chem. 2001, 276, 251-260; Bach S, Knockaert M, Reinhardt J, Lozach O, Schmitt S, Baratte B et al. (2005). Roscovitine targets, protein kinases and pyridoxal kinase. J. Biol Chem 280: 31208-31219). Its kinase activity was analyzed in the buffer C, with 1 mg of histone H1/mL, in the presence of 15 μM of [γ-^33P] ATP (3,000 Ci/mmol; 10 mCi/mL) in a final volume of 30 μl. After 30 mins of incubation at 30° C., 25 μl of supernatant aliquots were deposited on 2.5×3 cm pieces of phosphocellulose Whatman P81 paper, and after 20 seconds, the filters were washed five times (for at least 5 minutes every time) in a solution of 10 mL phosphoric acid/liter of water. The wet filters were counted in the presence of 1 mL of ACS scintillator fluid (Amersham).

HCT 116 = experiment: Cytotoxicity on human cells, HCT 116 (colon); type: cell-based; conditions: exposed 24 h and 48 h, 0.1 to 25 μM
Experimental: as §4, §5, §6, §7

Caco = experiment: Cytotoxicity on human cells, Caco (colon); type: cell-based; conditions: exposed 24 h and 48 h, 0.1 to 25 μM
Experimental: as §4, §5, §6, §7

Huh7 = experiment: Cytotoxicity on human cells, Huh7 (liver); type: cell-based; conditions: Huh-7, human cells, exposed 24 h and 48 h, 0.1 to 25 μM
Experimental: as §4, §5, §6, §7

PC3 = experiment: Cytotoxicity on human cells, PC3 (prostate); type: cell-based; conditions: PC-3, human cells, exposed 24 h and 48 h, 0.1 to 25 μM
Experimental: as §4, §5, §6, §7

DYRK1A = DYRK1A (Homo sapiens, UniProt Q13627); experiment: DYRK1A kinase inhibition (Woodtide substrate, buffer A); type: biochemical; conditions: 15 μM ATP, 30° C., recombinant GST fusion; read-out: IC50 Kinases DYRK1A
Experimental: as §1, §2, §3

MDA-MB 231 = experiment: Cytotoxicity on human cells, MDA-MB 231 (breast); type: cell-based; conditions: MDA-MB-231, human cells, exposed 24 h and 48 h, 0.1 to 25 μM
Experimental: as §4, §5, §6, §7

fibroblast = experiment: Cytotoxicity on human cells, fibroblast; type: cell-based; conditions: exposed 24 h and 48 h, 0.1 to 25 μM
Experimental: as §4, §5, §6, §7

| SMILES | pIC50 (GSK-3αβ) | pIC50 (CDK5) | melting point | pIC50 (DYRK1A) | pIC50 (NCI) | pIC50 (HCT 116) | pIC50 (Caco) | pIC50 (Huh7) | pIC50 (PC3) | pIC50 (MDA-MB 231) | pIC50 (fibroblast) |
| --- | --- | --- | --- | --- | --- | --- | --- | --- | --- | --- | --- |
| Oc1ccc(-c2ncc3ncc(Cl)cc3n2)cc1 [Compound 17, 7-Chloro-2-(4-hydroxyphenyl)-pyrido[3,2-d]pyrimidine] | < 4.00 | 5.29 | 231 to 232 °C | 4.80 | < 4.60 | < 4.60 | < 4.60 | < 4.60 | < 4.60 | < 4.60 | < 4.60 |
| Oc1ccc(-c2cnc3cnc(-c4ccc(O)cc4)nc3c2)cc1 [Compound 20, 2,7-Di-(4-hydroxyphenyl)-pyrido[3,2-d]pyrimidine] | 4.59 | 6.92 |  | 6.03 | < 4.60 | 4.92 | 5.15 | 4.92 | 4.60 | < 4.60 | < 4.60 |
| Oc1cccc(-c2cnc3cnc(-c4cccc(O)c4)nc3c2)c1 [Compound 21, 2,7-Di-(3-hydroxyphenyl)-pyrido[3,2-d]pyrimidine] | < 4.00 | 5.59 | 264 to 265 °C | 5.47 | < 4.60 | < 4.60 | 4.70 | < 4.60 | 4.60 | < 4.60 | < 4.60 |
| Oc1ccccc1-c1cnc2cnc(-c3ccccc3O)nc2c1 [Compound 22, 2,7-Di-(2-hydroxyphenyl)-pyrido[3,2-d]pyrimidine] | < 5.00 | < 5.00 | 239 to 240 °C | < 5.00 | 5.70 | < 4.60 | < 4.60 | < 4.60 | < 4.60 | < 4.60 | < 4.60 |
| Oc1ccc(-c2ncc3ncc(-c4cccc(O)c4)cc3n2)cc1 [Compound 23, 2-(4-Hydroxyphenyl)-7-(3-hydroxyphenyl)-pyrido[3,2-d]pyrimidine] | < 4.00 | 6.96 | 256 to 257 °C | 5.62 | 4.70 | 5.15 | 5.40 | 5.00 | 5.05 | < 4.60 | < 4.60 |
| Oc1ccc(-c2ncc3ncc(-c4ccccc4O)cc3n2)cc1 [Compound 24, 2-(4-Hydroxyphenyl)-7-(2-hydroxyphenyl)-pyrido[3,2-d]pyrimidine] | ≤ 4.00 | 7.05 | 278 to 279 °C | 5.57 | < 4.60 | 4.70 | 4.70 | 4.60 | 4.70 | < 4.60 | < 4.60 |
| Oc1ccc(-c2ncc3ncc(-c4ccc(C(F)(F)F)cc4)cc3n2)cc1 [Compound 25, 2-(4-Hydroxyphenyl)-7-(4-trifluoromethylphenyl)-pyrido[3,2-d]pyrimidine] | ≤ 4.00 | 6.01 | 203 to 204 °C | 4.62 | 4.70 | < 4.60 | < 4.60 | 4.60 | < 4.60 | < 4.60 | < 4.60 |

Second part, led by results:

| pIC50 (GSK-3αβ) | pIC50 (CDK5) | melting point | pIC50 (DYRK1A) | SMILES | pIC50 (NCI) | pIC50 (HCT 116) | pIC50 (Caco) | pIC50 (Huh7) | pIC50 (PC3) | pIC50 (MDA-MB 231) | pIC50 (fibroblast) |
| --- | --- | --- | --- | --- | --- | --- | --- | --- | --- | --- | --- |
| < 4.00 | 6.32 | 306 to 307 °C | < 5.00 | CS(=O)(=O)c1ccc(-c2cnc3cnc(-c4ccc(O)cc4)nc3c2)cc1 [Compound 26, 2-(4-Hydroxyphenyl)-7-(4-methanesulfonylphenyl)-pyrido[3,2-d]pyrimidine] | < 4.60 | < 4.60 | < 4.60 | < 4.60 | < 4.60 | < 4.60 | < 4.60 |
|  |  |  | < 5.00 | Oc1ccc(-c2ncc3ncc(-c4ccoc4)cc3n2)cc1 [Compound 36] |  | 5.00 |  | < 4.60 | < 4.60 |  | 4.70 |
|  |  | 126 to 127 °C |  | COc1ccc(Nc2cnc3c(NCc4ccccc4)nc(NCCO)nc3c2)cc1 [Compound 83, 4-Benzylamino-2-(2-hydroxyethylamino)-7-(4-methoxyphenylamino)-pyrido[3,2-d]pyrimidine] | 5.22 | 5.30 | 5.10 | 5.30 | 4.92 | 5.00 | 4.82 |
|  |  | 110 to 111 °C |  | COc1cccc(Nc2cnc3c(NCc4ccccc4)nc(NCCO)nc3c2)c1 [Compound 84, 4-Benzylamino-2-(2-hydroxyethylamino)-7-(3-methoxyphenylamino)-pyrido[3,2-d]pyrimidine] | 5.52 | 5.30 | 5.40 | 5.52 | 5.30 | 4.82 | 5.30 |
|  |  | 141 to 142 °C |  | OCCNc1nc(NCc2ccccc2)c2ncc(Nc3ncccn3)cc2n1 [Compound 87, 4-Benzylamino-2-(2-hydroxyethylamino)-7-(2-pyrimidinylamino)-pyrido[3,2-d]pyrimidine] | 5.22 | 5.22 | 5.10 | 5.15 | 4.82 | 4.82 | 4.82 |
|  |  | 154 to 155 °C |  | OCCNc1nc(NCc2ccccc2)c2ncc(Nc3cnc4ccccc4c3)cc2n1 [Compound 89, 4-Benzylamino-2-(2-hydroxyethylamino)-7-(3-quinolinamino)-pyrido[3,2-d]pyrimidine] | 5.70 | 6.30 | 5.70 | 5.52 | 5.52 | 5.52 | 5.70 |
|  |  | 203 to 204 °C |  | OCCNc1nc(NCc2ccccc2)c2ncc(Nc3ccc4ncccc4c3)cc2n1 [Compound 90, 4-Benzylamino-2-(2-hydroxyethylamino)-7-(6-quinolinamino)-pyrido[3,2-d]pyrimidine] | 5.70 | 5.92 | 5.40 | 5.70 | 5.30 | 5.40 | 5.82 |
